These are literature values, as cited in patent US10279004B2, “Methods and compositions for enhancing or maintaining fertility” (Quality IP Holdings, LLC, priority 2016, dated 2019).

One data set deals with hGH. The settings on record: for effect on hGH: other amino acids, literature.
For data set [1] the following is noted: subcutaneous injection of 0.06 IU in hGH deficient subjects.

In the case of `CSCC[C@H](N)C(=O)O` [methionine], the “effect on hGH” value with hGH was “marked increases in hGH”. On to `NCCC[C@H](N)C(=O)O` [ornithine], for which, in the data set with hGH, the “effect on hGH” value is on record as “marked increases in hGH”. Take `N[C@@H](Cc1ccccc1)C(=O)O` [phenylalanine]: in the data set with hGH, the “effect on hGH” value is on record as “marked increases in hGH”. With “hGH: human growth hormone, available in injectable forms”, the “mean level of hGH reached” value in data set [1] is 0.4 ng/mL. The “probability of clinical pregnancy” value (administration during ovarian stimulation phase of IVF cycles) is given as “increase the probability of clinical pregnancy”. Moreover, the “body composition in hGH-deficient adults” value (within months of hGH treatment) is “gains in lean body mass, skin thickness, and muscle mass are observed”. Take `N=C(N)NCCC[C@H](N)C(=O)O` [arginine]: the “elevation of serum hGH levels” value in the data set on hGH (30 g in males) is given as 8.6 fold. In addition, in the data set on hGH (intravenous infusion of 183 mg/kg body weight in females), the “increase in hGH levels” value is more than 20 fold. Consider `NCCCC[C@H](N)C(=O)O` [lysine], for which the “effect on hGH” value with hGH is given as “marked increases in hGH”. For `N[C@@H](Cc1c[nH]cn1)C(=O)O` [histidine], the “effect on hGH” value with hGH is on record as “marked increases in hGH”.
